The assay deals with T1, DGKK (Diacylglycerol kinase kappa) (Homo sapiens, UniProt Q5KSL6).
T1 construct: host or cells: SILAC HEK293T
T1 sequence (Q5KSL6 1-1271): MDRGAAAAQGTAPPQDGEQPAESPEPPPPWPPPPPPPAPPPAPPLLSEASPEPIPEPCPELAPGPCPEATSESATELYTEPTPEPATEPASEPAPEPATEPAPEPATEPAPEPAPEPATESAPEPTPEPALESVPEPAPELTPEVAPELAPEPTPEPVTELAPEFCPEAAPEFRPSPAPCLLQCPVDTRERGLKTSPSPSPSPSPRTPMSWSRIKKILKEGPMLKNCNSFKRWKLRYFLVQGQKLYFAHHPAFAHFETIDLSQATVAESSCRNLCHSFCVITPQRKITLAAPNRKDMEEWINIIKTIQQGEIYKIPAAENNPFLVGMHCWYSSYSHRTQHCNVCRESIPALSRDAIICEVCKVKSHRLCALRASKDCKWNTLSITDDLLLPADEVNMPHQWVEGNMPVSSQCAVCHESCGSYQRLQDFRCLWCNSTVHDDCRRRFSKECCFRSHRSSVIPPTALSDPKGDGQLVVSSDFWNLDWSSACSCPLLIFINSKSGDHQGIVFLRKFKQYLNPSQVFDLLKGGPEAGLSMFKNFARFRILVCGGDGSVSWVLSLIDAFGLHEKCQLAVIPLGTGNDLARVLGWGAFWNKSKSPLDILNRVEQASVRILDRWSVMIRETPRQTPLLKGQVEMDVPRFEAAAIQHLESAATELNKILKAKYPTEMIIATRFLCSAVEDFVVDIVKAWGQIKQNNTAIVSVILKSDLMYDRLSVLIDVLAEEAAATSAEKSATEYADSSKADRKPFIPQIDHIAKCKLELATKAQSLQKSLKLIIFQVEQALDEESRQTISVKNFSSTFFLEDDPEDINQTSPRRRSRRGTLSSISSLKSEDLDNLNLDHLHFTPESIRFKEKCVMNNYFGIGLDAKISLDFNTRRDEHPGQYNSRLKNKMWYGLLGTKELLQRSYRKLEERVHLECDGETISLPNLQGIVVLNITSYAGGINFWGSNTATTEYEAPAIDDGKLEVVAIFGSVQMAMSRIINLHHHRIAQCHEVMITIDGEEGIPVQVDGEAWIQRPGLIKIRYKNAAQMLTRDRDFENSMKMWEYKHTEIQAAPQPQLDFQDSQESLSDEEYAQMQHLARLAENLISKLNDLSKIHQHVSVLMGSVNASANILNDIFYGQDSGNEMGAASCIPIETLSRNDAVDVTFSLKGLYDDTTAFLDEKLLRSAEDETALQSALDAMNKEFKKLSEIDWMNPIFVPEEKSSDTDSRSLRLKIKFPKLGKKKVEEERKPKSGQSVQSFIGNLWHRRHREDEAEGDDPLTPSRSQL
The assay can be described thus: SILAC LC-MS ATP acyl phosphate probe competition, recombinant DGK-HEK293T lysates. In kind it is binding. The note with it: site DAGKa (K892); ATP 1 mM; Ketanserin, Ritanserin 100 μM; RF001 1 mM. An excerpt:
Recombinant DGK proteins were produced by transient transfection of HEK293T cells with recombinant DNA. pDONR223-DGKK was a gift from William Hahn & David Root (Addgene plasmid #23487). pCSF107mT-GATEWAY-3′-FLAG was a gift from Todd Stukenberg (Addgene plasmid #67619). pCSF107mT-DGKK-FLAG construct was generated by recombination of the Addgene plasmids using the Gateway cloning system (Invitrogen). All other vectors were gifted to Dr. Kevin Lynch (University of Virginia, School of Medicine) by Dr. Kaoru Goto (Yamagata University, School of Medicine) and Dr. Fumio Sakane (Chiba University) and were kindly shared with us: pcDNA3-FLAG-DGKA (rat), pCMV-Tag2B-FLAG-DGKQ (human), pcDNA3-DGKE-3×Flag (human), and pCMV-SPORT6-HA-DGKZ (human). HEK293T cells were plated at a concentration of 400,000 cells in complete DMEM and grown to 50-60% confluency. A polyethyleneimine (PEI) stock solution was prepared (1 mg/mL, pH 7.4) and filter sterilized. Serum-free DMEM (600 μL) was mixed gently with 2.6 μg DNA and 20 μL of sterile PEI (1 mg/mL, pH 7.4) in a sterile microfuge tube. Mixtures were incubated for 30 min at 25° C. The mixture was then added drop-wise to each 10 cm^2 plate, rocked back and forth to mix, and placed back in the incubator. Cell pellets were harvested after two full days of growth, snap-frozen in liquid N2, and stored at −80° C. until use. Recombinant proteins were produced by transient transfection in SILAC HEK293T cells using the procedure described above, except that cells were plated at a concentration of 1×10^6 cells per 10 cm^2 plate and grown to ˜70% confluency prior to introducing transfection mixture.
Proteomes were diluted to 2 mg/ml in kinase buffer. The light and heavy proteomes (0.5 mg, 250 μL total reaction volume) were pre-treated with vehicle or compound, respectively (5 μL, DMSO (light) or 50× stock in DMSO (heavy)), mixed gently, and incubated at 25° C. for 30 min. […] After incubation, matched light and heavy proteomes were transferred and mixed in a 1:1 ratio in a two-dram vial containing 4:1:3 MeOH/CHCl3/H2O (2 mL MeOH, 500 AL CHCl3, 1.5 mL H2O) for extraction of proteins to remove excess probe, quickly vortexed, and centrifuged at 1,400×g for 3 min to pellet protein. Organic and aqueous layers were removed using a Pasteur pipette, and the protein pellet was transferred to a screw-top tube in 600 μL MeOH. A second extraction was performed by adding CHCl3 (150 μL) and H2O (600 μL) to each sample, vortexed, and centrifuged at 1,400×g for 3 min to pellet protein. Organic and aqueous layers were removed by pipetting. MeOH added to pellet (600 μL) and pellets were re-suspended by sonication (3×1 sec pulse, 20% amplitude) for a final extraction. Samples were then centrifuged at 17,000×g for 5 min to pellet protein and MeOH was removed by pipetting. The pellets were re-suspended in 10 M urea/25 mM ammonium bicarbonate ([…]), brought to a final volume of 1 mL with 25 mM ammonium bicarbonate, reduced with 10 mM DTT for 15 min at 65° C. allowed to cool, and then alkylated with 40 mM iodoacetamide for 30 min at 25° C. in the dark. To desalt the samples, each was transferred to a two-dram glass vial, and to the vial 4:1:2 MeOH/CHCl3/H2O (2 mL MeOH, 500 AL CHCl3, 1 mL H2O) was added. The vials were vortexed quickly, spun at 1.400×g for 3 min to pellet protein, and aqueous and organic layers were removed using a Pasteur pipette. The resulting protein pellet was transferred to a screw-top tube in 600 μL MeOH, and then CHCl3 (150 μL) and HO (600 μL) were added to extract protein a second time. The samples were vortexed quickly, centrifuged at 1,400×g to pellet protein, and the aqueous and organic layers were removed by pipetting. Resulting protein pellet was suspended in MeOH (600 μL) via sonication (3×1 sec pulse, 20% amplitude), centrifuged at 17,000×g for 5 min to pellet protein, and MeOH removed by pipetting. […]
On to `O=C(c1ccc(F)cc1)C1CCN(CCn2c(=O)[nH]c3ccccc3c2=O)CC1` [Ketanserin], for which the “SILAC ratio, DGKK DAGKa probe-modified peptide” value is reported as 0.2. The same measure for `Fc1ccc(C(=C2CCNCC2)c2ccc(F)cc2)cc1` [RF001, 4-(Bis(4-fluorophenyl)methylene) piperidine]: 1.6; for `Cc1nc2sccn2c(=O)c1CCN1CCC(=C(c2ccc(F)cc2)c2ccc(F)cc2)CC1` [Ritanserin]: 0.7.

The values above are taken from patent publication US12643867B2, “Compositions and uses thereof” (University of Virginia Patent Foundation, priority 2017, dated 2026).
